Data on twelve compounds can be found in US20250235543A1, “MODIFIED PROTEINS AND PROTEIN DEGRADERS” (Cullgen (Shanghai), Inc., priority 2021, published 2025).

Experiment [1] relates to cyclin D1. As to the kind of experiment: Cyclin D1 percentage degradation in Calu-1 cells (immunoblotting). The following applies: 200 nM, 16 hours. In kind it is cell-based. The gist of the method: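 Cells were rinsed once in cold PBS and lysed in cold RIPA buffer containing protease and phosphatase inhibitors, with gentle agitation at 4° C. for 30 min. Lysates were spun at 13,000 rpm for 10 min at 4° C., protein was measured by BCA, and samples were boiled in Laemmli buffer at 99° C. for 5 min before SDS-PAGE immunoblotting.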
(In general: Immunoblotting shows a protein as a band on a membrane.)

For experiment [2], the target named is T1, CDK4 (Homo sapiens, UniProt P11802).
T1 construct: endogenous in cells; host or cells: Calu-1
The experiment is described as follows: CDK4 percentage degradation in Calu-1 cells (immunoblotting). In kind it is cell-based. The following applies: Calu-1 cells, 200 nM, 16 hours; read-out: CDK4 Degradation (200 nM). The gist of the method:
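Cultured cells were rinsed once in cold PBS and lysed in cold RIPA buffer containing protease and phosphatase inhibitors, with gentle agitation at 4° C. for 30 min. Lysates were centrifuged at 13,000 rpm for 10 min at 4° C., and protein was quantified by BCA. Samples were then separated by SDS-PAGE, detected with ECL, and the CDK4 bands quantified in Image Lab.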

T1 sequence (P11802 2-303 limits assumed): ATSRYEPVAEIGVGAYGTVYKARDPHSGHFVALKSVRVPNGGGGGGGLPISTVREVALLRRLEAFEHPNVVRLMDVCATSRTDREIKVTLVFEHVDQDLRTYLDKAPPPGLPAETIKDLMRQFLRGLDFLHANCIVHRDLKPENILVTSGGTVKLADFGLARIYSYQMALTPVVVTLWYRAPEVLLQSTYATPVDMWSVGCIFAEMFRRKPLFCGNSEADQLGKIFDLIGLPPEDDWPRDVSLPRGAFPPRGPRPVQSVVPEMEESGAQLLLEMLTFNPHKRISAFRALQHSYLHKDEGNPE
T1 sequence (P24385 whole entry partner): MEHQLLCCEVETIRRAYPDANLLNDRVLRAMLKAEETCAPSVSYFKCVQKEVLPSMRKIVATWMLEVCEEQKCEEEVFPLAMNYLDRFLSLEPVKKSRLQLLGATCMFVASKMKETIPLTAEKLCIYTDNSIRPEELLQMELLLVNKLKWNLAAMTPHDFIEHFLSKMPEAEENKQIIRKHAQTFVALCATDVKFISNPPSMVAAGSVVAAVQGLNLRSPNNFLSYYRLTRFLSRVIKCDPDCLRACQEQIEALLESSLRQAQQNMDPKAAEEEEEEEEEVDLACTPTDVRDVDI
T1 sequence (Q16531 2-1140 limits assumed, further chain): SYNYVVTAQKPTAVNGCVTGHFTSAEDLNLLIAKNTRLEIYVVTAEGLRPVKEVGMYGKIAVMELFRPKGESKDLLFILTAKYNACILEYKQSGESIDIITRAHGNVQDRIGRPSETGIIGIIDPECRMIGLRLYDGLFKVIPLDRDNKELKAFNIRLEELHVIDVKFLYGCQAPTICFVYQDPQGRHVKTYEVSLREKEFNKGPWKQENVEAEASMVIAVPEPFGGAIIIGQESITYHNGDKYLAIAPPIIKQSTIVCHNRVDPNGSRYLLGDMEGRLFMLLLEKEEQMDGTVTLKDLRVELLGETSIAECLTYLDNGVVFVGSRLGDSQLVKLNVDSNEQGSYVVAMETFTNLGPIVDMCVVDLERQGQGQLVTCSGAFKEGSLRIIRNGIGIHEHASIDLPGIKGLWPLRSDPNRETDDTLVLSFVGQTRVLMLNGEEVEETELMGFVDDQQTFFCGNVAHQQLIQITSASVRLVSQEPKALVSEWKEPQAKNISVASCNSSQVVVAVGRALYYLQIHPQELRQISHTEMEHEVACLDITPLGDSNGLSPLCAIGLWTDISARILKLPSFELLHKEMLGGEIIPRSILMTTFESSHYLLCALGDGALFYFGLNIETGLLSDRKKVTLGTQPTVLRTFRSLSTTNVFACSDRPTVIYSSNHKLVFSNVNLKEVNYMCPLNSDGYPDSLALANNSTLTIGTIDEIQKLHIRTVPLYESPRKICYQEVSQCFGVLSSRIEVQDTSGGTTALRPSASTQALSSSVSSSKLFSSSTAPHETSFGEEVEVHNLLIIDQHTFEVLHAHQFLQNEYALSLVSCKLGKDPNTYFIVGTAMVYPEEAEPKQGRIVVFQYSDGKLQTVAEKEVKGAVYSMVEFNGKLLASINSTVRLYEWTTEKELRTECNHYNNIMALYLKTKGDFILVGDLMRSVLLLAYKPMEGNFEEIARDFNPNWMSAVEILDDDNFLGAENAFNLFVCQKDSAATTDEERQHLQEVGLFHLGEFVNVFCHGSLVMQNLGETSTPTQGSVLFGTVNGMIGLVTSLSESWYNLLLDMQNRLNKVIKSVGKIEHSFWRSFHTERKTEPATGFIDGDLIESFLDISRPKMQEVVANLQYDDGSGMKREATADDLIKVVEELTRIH

Consider `CC(=O)c1c(C)c2cnc(Nc3ccc(N4CCN(CC(=O)NCCCCCCCNc5ccccc5C(=O)Nc5nc(C)c(C)s5)CC4)cn3)nc2n(C2CCCC2)c1=O` [CPD-364, 2-((7-(2-(4-(6-((6-Acetyl-8-cyclopentyl-5-methyl-7-oxo-7,8-dihydropyrido[2,3-d]pyrimidin-2-yl)amino)pyridin-3-yl)piperazin-1-yl)acetamido)heptyl)amino)-N-(4,5-dimethylthiazol-2-yl)benzamide], for which the “CyclinD1 Degradation (200 nM)” value in experiment [1] is “A (protein percentage degradation >=80%)”. In experiment [2], the inhibition at 0.2 µM was 50 to 80%.

For the compound `COc1ccc(NC(=O)c2ccc(N(C)C)cc2NC(=O)CCOCCOCCNC(=O)CN2CCN(c3ccc(Nc4ncc5c(C)c(C(C)=O)c(=O)n(C6CCCC6)c5n4)nc3)CC2)nn1` [CPD-365, 2-(3-(2-(2-(2-(4-(6-((6-Acetyl-8-cyclopentyl-5-methyl-7-oxo-7,8-dihydropyrido[2,3-d]pyrimidin-2-yl)amino)pyridin-3-yl)piperazin-1-yl)acetamido)ethoxy)ethoxy)propanamido)-4-(dimethylamino)-N-(6-methoxypyridazin-3-yl)benzamide], the “CyclinD1 Degradation (200 nM)” value in experiment [1] is listed as “A (protein percentage degradation >=80%)”. The inhibition at 0.2 µM in experiment [2] is greater than 80%.

On to `COc1ccc(NC(=O)c2ccccc2NC(=O)COCCO[C@H]2CC[C@H](NC(=O)CN3CCN(c4ccc(Nc5ncc6c(C)c(C(C)=O)c(=O)n(C7CCCC7)c6n5)nc4)CC3)CC2)nn1` [CPD-366, 2-(2-(2-((trans-4-(2-(4-(6-((6-Acetyl-8-cyclopentyl-5-methyl-7-oxo-7,8-dihydropyrido[2,3-d]pyrimidin-2-yl)amino)pyridin-3-yl)piperazin-1-yl)acetamido)cyclohexyl)oxy)ethoxy)acetamido)-N-(6-methoxypyridazin-3-yl)benzamide], for which the “CyclinD1 Degradation (200 nM)” value in experiment [1] is “D (protein percentage degradation <30%)”. Also, the inhibition at 0.2 µM in experiment [2] is less than 30%.

For the compound `CC(=O)c1c(C)c2cnc(Nc3ccc(N4CCN(CC(=O)NCCOCCOCCC(=O)Nc5ccccc5C(=O)Nc5nnc(C)s5)CC4)cn3)nc2n(C2CCCC2)c1=O` [CPD-367, 2-(3-(2-(2-(2-(4-(6-((6-Acetyl-8-cyclopentyl-5-methyl-7-oxo-7,8-dihydropyrido[2,3-d]pyrimidin-2-yl)amino)pyridin-3-yl)piperazin-1-yl)acetamido)ethoxy)ethoxy)propanamido)-N-(5-methyl-1,3,4-thiadiazol-2-yl)benzamide], the “CyclinD1 Degradation (200 nM)” value in experiment [1] is on record as “D (protein percentage degradation <30%)”. Further, the inhibition at 0.2 µM in experiment [2] was less than 30%.

Take `CC(=O)c1c(C)c2cnc(Nc3ccc(N4CCN(CC(=O)NCCCCCCCNc5cc(C)ccc5C(=O)Nc5nc(C)c(C)s5)CC4)cn3)nc2n(C2CCCC2)c1=O` [CPD-368, 2-((7-(2-(4-(6-((6-Acetyl-8-cyclopentyl-5-methyl-7-oxo-7,8-dihydropyrido[2,3-d]pyrimidin-2-yl)amino)pyridin-3-yl)piperazin-1-yl)acetamido)heptyl)amino)-N-(4,5-dimethylthiazol-2-yl)-4-methylbenzamide]: the “CyclinD1 Degradation (200 nM)” value in experiment [1] was “A (protein percentage degradation >=80%)”. Further, the inhibition at 0.2 µM in experiment [2] was greater than 80%.

`CC(=O)c1c(C)c2cnc(Nc3ccc(N4CCN(CC(=O)NCCOCCOCCC(=O)Nc5ccccc5C(=O)Nc5ccc(C#N)nn5)CC4)cn3)nc2n(C2CCCC2)c1=O` [CPD-369, 2-(3-(2-(2-(2-(4-(6-((6-Acetyl-8-cyclopentyl-5-methyl-7-oxo-7,8-dihydropyrido[2,3-d]pyrimidin-2-yl)amino)pyridin-3-yl)piperazin-1-yl)acetamido)ethoxy)ethoxy)propanamido)-N-(6-cyanopyridazin-3-yl)benzamide]: in experiment [1], the “CyclinD1 Degradation (200 nM)” value is given as “D (protein percentage degradation <30%)”. Also, in experiment [2], the inhibition at 0.2 µM was less than 30%.

In the case of `CNc1ccc(C(=O)Nc2nc(C)c(C)s2)c(NCCCCCCCNC(=O)CN2CCN(c3ccc(Nc4ncc5c(C)c(C(C)=O)c(=O)n(C6CCCC6)c5n4)nc3)CC2)c1` [CPD-370, 2-((7-(2-(4-(6-((6-Acetyl-8-cyclopentyl-5-methyl-7-oxo-7,8-dihydropyrido[2,3-d]pyrimidin-2-yl)amino)pyridin-3-yl)piperazin-1-yl)acetamido)heptyl)amino)-N-(4,5-dimethylthiazol-2-yl)-4-(methylamino)benzamide], in experiment [1], the “CyclinD1 Degradation (200 nM)” value was “A (protein percentage degradation >=80%)”. The inhibition at 0.2 µM in experiment [2] is greater than 80%.

Regarding `CNc1ccc(C(=O)Nc2ccc(C)c(C3CC3)n2)c(NCCCCCNC(=O)CN2CCN(c3ccc(Nc4ncc5c(C)c(C(C)=O)c(=O)n(C6CCCC6)c5n4)nc3)CC2)c1` [CPD-371, 2-((5-(2-(4-(6-((6-Acetyl-8-cyclopentyl-5-methyl-7-oxo-7,8-dihydropyrido[2,3-d]pyrimidin-2-yl)amino)pyridin-3-yl)piperazin-1-yl)acetamido)pentyl)amino)-N-(6-cyclopropyl-5-methylpyridin-2-yl)-4-(methylamino)benzamide], the “CyclinD1 Degradation (200 nM)” value in experiment [1] is listed as “A (protein percentage degradation >=80%)”. The inhibition at 0.2 µM in experiment [2] was in the range of 50 to 80%.

As for `CC(=O)c1c(C)c2cnc(Nc3ccc(N4CCN(CC(=O)NCCCCCNc5cc(F)ccc5C(=O)Nc5ccc(N(C)C)nn5)CC4)cn3)nc2n(C2CCCC2)c1=O` [CPD-372, 2-((5-(2-(4-(6-((6-Acetyl-8-cyclopentyl-5-methyl-7-oxo-7,8-dihydropyrido[2,3-d]pyrimidin-2-yl)amino)pyridin-3-yl)piperazin-1-yl)acetamido)pentyl)amino)-N-(6-(dimethylamino)pyridazin-3-yl)-4-fluorobenzamide], the “CyclinD1 Degradation (200 nM)” value in experiment [1] is reported as “A (protein percentage degradation >=80%)”. Further, the inhibition at 0.2 µM in experiment [2] lay within 50 to 80%.

For the compound `CC(=O)c1c(C)c2cnc(Nc3ccc(N4CCN(CC(=O)NCCCCCNc5cc(C)ccc5C(=O)Nc5ccc(N(C)C)nn5)CC4)cn3)nc2n(C2CCCC2)c1=O` [CPD-373, 2-((5-(2-(4-(6-((6-Acetyl-8-cyclopentyl-5-methyl-7-oxo-7,8-dihydropyrido[2,3-d]pyrimidin-2-yl)amino)pyridin-3-yl)piperazin-1-yl)acetamido)pentyl)amino)-N-(6-(dimethylamino)pyridazin-3-yl)-4-methylbenzamide], in experiment [1], the “CyclinD1 Degradation (200 nM)” value was “A (protein percentage degradation >=80%)”. Besides, the inhibition at 0.2 µM in experiment [2] was in the range of 50 to 80%.

On to `CC(=O)c1c(C)c2cnc(Nc3ccc(N4CCN(CC(=O)NCCCCCNc5cc(Cl)ccc5C(=O)Nc5ccc(N(C)C)nn5)CC4)cn3)nc2n(C2CCCC2)c1=O` [CPD-374, 2-((5-(2-(4-(6-((6-Acetyl-8-cyclopentyl-5-methyl-7-oxo-7,8-dihydropyrido[2,3-d]pyrimidin-2-yl)amino)pyridin-3-yl)piperazin-1-yl)acetamido)pentyl)amino)-4-chloro-N-(6-(dimethylamino)pyridazin-3-yl)benzamide], for which the “CyclinD1 Degradation (200 nM)” value in experiment [1] is on record as “A (protein percentage degradation >=80%)”. In addition, in experiment [2], the inhibition at 0.2 µM was 50 to 80%.

`CC(=O)c1c(C)c2cnc(Nc3ccc(N4CCN(CC(=O)NCCCCNc5cc(C)ccc5C(=O)Nc5ccc(N(C)C)nn5)CC4)cn3)nc2n(C2CCCC2)c1=O` [CPD-375, 2-((4-(2-(4-(6-((6-Acetyl-8-cyclopentyl-5-methyl-7-oxo-7,8-dihydropyrido[2,3-d]pyrimidin-2-yl)amino)pyridin-3-yl)piperazin-1-yl)acetamido)butyl)amino)-N-(6-(dimethylamino)pyridazin-3-yl)-4-methylbenzamide]: in experiment [1], the “CyclinD1 Degradation (200 nM)” value is on record as “A (protein percentage degradation >=80%)”. For the same compound, the inhibition at 0.2 µM in experiment [2] was in the range of 50 to 80%.
